Assay results taken from US9682141B2, “Combination of kinase inhibitors and uses thereof” (INTELLIKINE LLC, priority 2011, dated 2017).
pIC50: −log10 of the molar value.

Tests used:
Type in all cases: biochemical
mTORC = mTORC (Homo sapiens (Human), UniProt P42345); test: mTOR inhibition assay (radiometric or LanthaScreen TR-FRET)
PI3K δ = PI3K δ (Homo sapiens (Human), UniProt O00329); test: PI 3-Kinase (human) HTRF assay, p110δ/p85α
PI3K γ = PI3K γ (Homo sapiens (Human), UniProt P48736); test: PI 3-Kinase (human) HTRF assay, p110γ; settings: read-out: PI3K γ IC50
PI3K α = PI3K α (Homo sapiens (Human), UniProt P42336); test: PI 3-Kinase (human) HTRF assay, p110α/p85α
PI3K β = PI3K β (Homo sapiens (Human), UniProt P42338); test: PI 3-Kinase (human) HTRF assay, p110β/p85α
Sequence of PI3K β (P42338 whole entry): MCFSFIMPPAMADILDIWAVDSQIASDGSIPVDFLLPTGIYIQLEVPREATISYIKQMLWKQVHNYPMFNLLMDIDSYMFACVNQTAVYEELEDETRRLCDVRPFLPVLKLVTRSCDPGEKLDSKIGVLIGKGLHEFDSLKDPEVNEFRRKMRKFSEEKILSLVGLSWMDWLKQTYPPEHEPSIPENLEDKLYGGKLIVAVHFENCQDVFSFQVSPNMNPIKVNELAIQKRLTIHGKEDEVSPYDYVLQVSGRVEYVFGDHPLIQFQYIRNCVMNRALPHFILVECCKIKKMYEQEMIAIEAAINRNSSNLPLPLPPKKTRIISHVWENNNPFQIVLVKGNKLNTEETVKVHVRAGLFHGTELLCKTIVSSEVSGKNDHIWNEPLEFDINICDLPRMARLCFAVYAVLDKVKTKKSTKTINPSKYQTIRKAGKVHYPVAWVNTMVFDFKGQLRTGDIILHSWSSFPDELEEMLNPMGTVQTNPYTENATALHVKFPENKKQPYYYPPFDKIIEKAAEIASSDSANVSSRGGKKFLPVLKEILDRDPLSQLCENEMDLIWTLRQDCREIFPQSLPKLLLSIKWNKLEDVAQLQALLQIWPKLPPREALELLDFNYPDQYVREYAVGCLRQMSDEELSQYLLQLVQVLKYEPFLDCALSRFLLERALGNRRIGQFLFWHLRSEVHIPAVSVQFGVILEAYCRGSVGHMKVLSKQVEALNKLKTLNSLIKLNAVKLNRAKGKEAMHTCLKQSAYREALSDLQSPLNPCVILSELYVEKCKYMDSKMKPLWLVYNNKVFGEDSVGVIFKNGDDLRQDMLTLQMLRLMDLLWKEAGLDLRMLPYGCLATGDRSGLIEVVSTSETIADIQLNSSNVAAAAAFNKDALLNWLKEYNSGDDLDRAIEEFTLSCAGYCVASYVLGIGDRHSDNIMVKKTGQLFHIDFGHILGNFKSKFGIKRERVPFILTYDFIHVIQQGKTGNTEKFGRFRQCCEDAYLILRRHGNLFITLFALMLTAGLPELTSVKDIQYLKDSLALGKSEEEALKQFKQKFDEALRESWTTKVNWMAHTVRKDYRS
Sequence of PI3K β (P27986 whole entry partner): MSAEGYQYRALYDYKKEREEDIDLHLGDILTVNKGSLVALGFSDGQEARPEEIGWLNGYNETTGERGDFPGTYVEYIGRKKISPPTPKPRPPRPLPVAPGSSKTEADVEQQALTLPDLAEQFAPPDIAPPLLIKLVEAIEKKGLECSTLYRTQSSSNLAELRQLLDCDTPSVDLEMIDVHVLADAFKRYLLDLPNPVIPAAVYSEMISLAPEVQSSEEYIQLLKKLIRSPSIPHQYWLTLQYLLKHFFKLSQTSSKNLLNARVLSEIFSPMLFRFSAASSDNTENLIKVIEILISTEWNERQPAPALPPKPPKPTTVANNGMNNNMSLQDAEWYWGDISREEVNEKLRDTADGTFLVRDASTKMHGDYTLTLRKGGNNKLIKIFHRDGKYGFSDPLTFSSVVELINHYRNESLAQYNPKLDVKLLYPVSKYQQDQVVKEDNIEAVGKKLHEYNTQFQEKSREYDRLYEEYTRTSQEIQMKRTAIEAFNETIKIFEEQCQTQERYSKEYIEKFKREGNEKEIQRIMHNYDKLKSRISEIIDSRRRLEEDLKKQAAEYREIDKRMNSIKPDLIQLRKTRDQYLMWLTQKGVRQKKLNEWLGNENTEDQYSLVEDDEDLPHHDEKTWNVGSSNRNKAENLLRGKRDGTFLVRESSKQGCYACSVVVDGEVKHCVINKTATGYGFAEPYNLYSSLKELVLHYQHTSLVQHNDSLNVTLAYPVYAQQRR

Sequence of PI3K δ (O00329 whole entry): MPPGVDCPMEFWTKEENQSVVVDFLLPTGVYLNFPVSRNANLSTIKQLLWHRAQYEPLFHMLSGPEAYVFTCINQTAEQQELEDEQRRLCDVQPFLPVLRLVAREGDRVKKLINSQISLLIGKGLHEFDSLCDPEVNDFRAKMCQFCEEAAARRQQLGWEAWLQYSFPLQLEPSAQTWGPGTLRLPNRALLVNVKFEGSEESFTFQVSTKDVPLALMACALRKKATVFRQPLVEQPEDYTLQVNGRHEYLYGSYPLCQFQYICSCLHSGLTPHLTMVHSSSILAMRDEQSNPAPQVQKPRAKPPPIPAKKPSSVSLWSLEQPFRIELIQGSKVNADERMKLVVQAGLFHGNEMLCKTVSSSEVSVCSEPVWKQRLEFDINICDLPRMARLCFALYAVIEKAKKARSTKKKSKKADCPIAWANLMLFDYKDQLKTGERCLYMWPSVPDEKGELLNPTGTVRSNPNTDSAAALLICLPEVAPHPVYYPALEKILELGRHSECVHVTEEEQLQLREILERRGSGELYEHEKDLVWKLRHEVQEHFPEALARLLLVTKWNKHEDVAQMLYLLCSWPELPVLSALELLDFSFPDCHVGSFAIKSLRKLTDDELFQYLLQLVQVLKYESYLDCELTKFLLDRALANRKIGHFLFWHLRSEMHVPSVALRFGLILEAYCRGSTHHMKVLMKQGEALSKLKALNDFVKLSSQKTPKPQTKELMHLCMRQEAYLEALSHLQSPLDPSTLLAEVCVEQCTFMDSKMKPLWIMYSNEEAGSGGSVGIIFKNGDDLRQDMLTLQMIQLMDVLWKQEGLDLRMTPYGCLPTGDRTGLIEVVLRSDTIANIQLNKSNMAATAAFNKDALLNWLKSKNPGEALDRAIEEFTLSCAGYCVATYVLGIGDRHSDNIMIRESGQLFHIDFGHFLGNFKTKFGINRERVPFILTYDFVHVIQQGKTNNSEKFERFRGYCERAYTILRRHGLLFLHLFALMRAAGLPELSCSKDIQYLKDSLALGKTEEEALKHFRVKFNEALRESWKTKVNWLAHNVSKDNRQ
Sequence of PI3K δ (P27986 whole entry partner): as the sequence (P27986 whole entry partner) above
Sequence of mTORC (P42345 1360-2549): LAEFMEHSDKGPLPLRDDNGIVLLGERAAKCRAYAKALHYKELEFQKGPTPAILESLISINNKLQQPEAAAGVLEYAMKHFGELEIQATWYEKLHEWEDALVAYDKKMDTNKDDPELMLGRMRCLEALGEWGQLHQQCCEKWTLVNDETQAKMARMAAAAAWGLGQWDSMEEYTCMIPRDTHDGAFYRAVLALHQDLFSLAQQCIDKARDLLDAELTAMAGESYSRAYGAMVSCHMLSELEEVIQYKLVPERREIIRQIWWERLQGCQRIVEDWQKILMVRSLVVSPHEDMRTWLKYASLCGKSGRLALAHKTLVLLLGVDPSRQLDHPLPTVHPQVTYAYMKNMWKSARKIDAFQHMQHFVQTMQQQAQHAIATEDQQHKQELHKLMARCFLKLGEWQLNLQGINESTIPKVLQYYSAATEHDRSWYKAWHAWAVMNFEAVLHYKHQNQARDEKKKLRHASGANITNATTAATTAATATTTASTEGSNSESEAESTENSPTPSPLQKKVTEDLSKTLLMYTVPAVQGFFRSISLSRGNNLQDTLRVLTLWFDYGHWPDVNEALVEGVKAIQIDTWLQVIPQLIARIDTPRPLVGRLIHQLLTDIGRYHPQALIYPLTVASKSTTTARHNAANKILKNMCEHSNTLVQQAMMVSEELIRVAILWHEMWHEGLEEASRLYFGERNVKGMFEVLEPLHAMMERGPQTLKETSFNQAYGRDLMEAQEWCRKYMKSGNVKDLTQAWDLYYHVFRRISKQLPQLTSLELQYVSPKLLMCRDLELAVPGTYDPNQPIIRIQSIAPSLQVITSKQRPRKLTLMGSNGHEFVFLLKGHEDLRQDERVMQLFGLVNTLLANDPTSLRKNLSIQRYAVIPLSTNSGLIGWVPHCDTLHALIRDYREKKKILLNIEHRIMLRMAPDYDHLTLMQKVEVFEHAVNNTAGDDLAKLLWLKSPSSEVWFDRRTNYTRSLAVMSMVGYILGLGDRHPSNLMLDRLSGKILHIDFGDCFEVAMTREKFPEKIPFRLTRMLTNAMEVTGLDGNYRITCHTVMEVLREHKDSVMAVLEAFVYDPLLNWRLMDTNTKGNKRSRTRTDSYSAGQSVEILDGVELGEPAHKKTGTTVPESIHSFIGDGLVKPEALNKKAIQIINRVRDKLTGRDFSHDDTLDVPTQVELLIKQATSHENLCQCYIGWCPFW

Compound	pIC50 (mTORC)	pIC50 (PI3K δ)	pIC50 (PI3K γ)	pIC50 (PI3K α)	pIC50 (PI3K β)
CN1CC2CN(c3cnc4ccc(-c5ccc6oc(N)nc6c5)nc4n3)CC2C1 (stereo not drawn)	< 5.00	> 6.00	> 5.00	> 7.00	> 6.00
C[C@H]1CN(c2cnc3ccc(-c4ccc5oc(N)nc5c4)nc3c2)CCN1	< 5.00	> 5.00	> 6.00	> 7.00	> 7.00
C[C@H]1CN(C2CN(c3cnc4ccc(-c5ccc6oc(N)nc6c5)nc4c3)C2)CCN1C	< 5.00	> 6.00	> 5.00	> 7.00	> 5.00
Nc1nc2cc(-c3ccn4ncc(-c5ccncc5)c4n3)ccc2o1	> 7.00	> 7.00	> 7.00	> 7.00	> 7.00
Nc1nc2cc(-c3ccc4ncc(N5CC(N6CCOCC6)C5)cc4n3)ccc2o1	< 5.00	> 5.00	> 6.00	> 7.00	> 5.00
Nc1nc2cc(-c3ccc4ncc(=O)[nH]c4c3)ccc2o1	> 6.00	< 5.00	> 7.00	> 7.00	> 6.00
C[C@@H]1CN(C2CN(c3cnc4ccc(-c5ccc6oc(N)nc6c5)nc4c3)C2)CCN1	< 5.00	> 6.00	> 6.00	> 7.00	> 5.00
CN(C)CC(=O)N1CCN(c2cnc3ccc(-c4ccc5oc(N)nc5c4)cc3n2)CC1 [drawing 329]	< 5.00	> 6.00	> 6.00	> 7.00	> 6.00
CC(C)N1CCC(n2cnc3ccc(-c4ccc5oc(N)nc5c4)cc3c2=O)CC1	> 5.00	< 5.00	> 5.00	> 7.00	> 5.00
CC1(C)CN(C2CN(c3cnc4ccc(-c5ccc6oc(N)nc6c5)nc4c3)C2)CCN1	< 5.00	> 6.00	> 6.00	> 7.00	> 5.00
CC(=O)N1CCC(N(C)c2ncnc3ccc(-c4ccc5oc(N)nc5c4)cc23)CC1	< 5.00	> 6.00	> 6.00	> 7.00	> 6.00
Nc1nc2cc(-c3ccc4ncc(N5CCC(N6CCOCC6)CC5)nc4c3)ccc2o1	< 5.00	> 6.00	> 6.00	> 7.00	> 6.00
CC(C)(N)C(=O)N1CCN(c2cnc3ccc(-c4ccc5oc(N)nc5c4)nc3n2)CC1	< 5.00	> 5.00	> 5.00	> 7.00	> 5.00
CN1CC(C(=O)N2CCN(c3cnc4ccc(-c5ccc6oc(N)nc6c5)cc4n3)CC2)C1	< 5.00	> 6.00	> 6.00	> 7.00	> 6.00
Cn1c(=O)n(-c2ccc(C(C)(C)C#N)cc2)c2c3cc(-c4ccc5oc(N)nc5c4)ccc3ncc21 [Compound 7]	> 7.00	> 7.00	> 7.00	> 7.00	> 7.00
Nc1nc2cc(-c3ccc4ncc(N5CC(N6CCN(CCO)CC6)C5)nc4n3)ccc2o1	< 5.00	> 5.00	> 5.00	> 7.00	> 5.00
CCOC(=O)N1CCN(c2cnc3ccc(-c4ccc5oc(N)nc5c4)cc3n2)CC1	> 5.00	> 5.00	> 5.00	> 7.00	> 5.00
Cc1nc2ccc(-c3ccc4oc(N)nc4c3)nn2c1-c1ccncc1	> 6.00	< 5.00	> 7.00	> 7.00	> 6.00

Compound	pIC50 (mTORC)	pIC50 (PI3K δ)	pIC50 (PI3K γ)	pIC50 (PI3K α)	pIC50 (PI3K β)
Nc1nc2cc(-c3ccc4ncc(N5CC(N6CCN(CCO)CC6)C5)cc4n3)ccc2o1	< 5.00	> 6.00	> 6.00	> 7.00	> 5.00
CS(=O)(=O)N1CCN(Cc2cc3nc(-c4ccc5oc(N)nc5c4)nc(N4CCOCC4)c3s2)CC1	> 6.00	> 6.00	> 7.00	> 7.00	> 6.00
Cc1nccn1C1CN(c2cnc3ccc(-c4ccc5oc(N)nc5c4)nc3n2)C1	< 5.00	> 5.00	> 5.00	> 7.00	> 5.00
CC1(C)CN(C2CN(c3cnc4ccc(-c5ccc6oc(N)nc6c5)nc4n3)C2)CCN1	< 5.00	> 6.00	> 5.00	> 7.00	> 5.00
N#Cc1cnc2ccc(-c3ccc4oc(N)nc4c3)cc2c1	> 5.00	< 5.00	> 6.00	> 6.00	< 5.00
CN1CCN(C2CN(c3cnc4ccc(-c5ccc6oc(N)nc6c5)nc4n3)C2)CC1	< 5.00	> 6.00	< 5.00	> 7.00	> 5.00
CC(C)N1CCN(c2cnc3ccc(-c4ccc5oc(N)nc5c4)nc3c2)CC1	< 5.00	> 6.00	> 6.00	> 7.00	> 6.00
Nc1nc2cc(-c3ccc4ncc(N5CCN(C(=O)C6(N)CC6)CC5)nc4n3)ccc2o1	> 5.00	> 5.00	> 7.00	> 7.00	> 5.00
CN1CCN(C(=O)C2CN(c3cnc4ccc(-c5ccc6oc(N)nc6c5)cc4n3)C2)CC1 [drawing 360]	> 5.00	> 6.00	> 5.00	> 7.00	> 6.00
Nc1nc2cc(-c3ccc4ncnc(OC5CCOCC5)c4c3)ccc2o1 [Compound 47]	> 7.00	> 6.00	> 6.00	> 7.00	> 6.00
Nc1nc2cc(-c3ccc4ncc(N5CC(N6CCN(CC7CC7)CC6)C5)nc4n3)ccc2o1	< 5.00	> 5.00	> 5.00	> 7.00	> 5.00
CCN1CCN(C2CN(c3cnc4ccc(-c5ccc6oc(N)nc6c5)nc4n3)C2)CC1	> 5.00	> 5.00	> 5.00	> 7.00	> 5.00
C[C@H]1CN(C2CN(c3cnc4ccc(-c5ccc6oc(N)nc6c5)nc4c3)C2)CCN1	< 5.00	> 6.00	> 5.00	> 7.00	> 5.00
Nc1nc2cc(-c3ccc4ncc(N5C6CCC5COC6)nc4n3)ccc2o1	< 5.00	< 5.00	> 7.00	> 7.00	< 5.00
Nc1ccc2cc(-c3ccc4nccc(-c5ccncc5)c4c3)ccc2n1 [Compound 5]	> 6.00	> 5.00	> 6.00	> 6.00	< 5.00
C[C@H]1CN(C2CN(c3cnc4ccc(-c5ccc6oc(N)nc6c5)nc4n3)C2)CCN1	> 5.00	> 5.00	> 5.00	> 7.00	< 5.00
Nc1nc2cc(-c3ccc4ncc(N5CC(N6CCN(CC7CC7)CC6)C5)cc4n3)ccc2o1	< 5.00	> 6.00	> 5.00	> 7.00	> 5.00
Nc1nc2cc(-c3ccc4ncc(C(=O)N5CCOCC5)n4c3)ccc2o1	> 5.00	> 5.00	> 5.00	> 7.00	> 5.00
